Laboratory results published in ChEMBL document CHEMBL4689842, “EUbOPEN Chemogenomics Library wave 1” (2021).

Legend:
Format in all cases: toxicity, cell-based
HEK-293T = assay: Incucyte cell viability with HEK293T; details: human, 10 µM, compound concentration 10 uM
Fibroblast = assay: Incucyte cell viability with human fibroblast; details: 10 µM, compound concentration 10 uM
U2OS = assay: Incucyte cell viability with U2OS; details: human, 10 µM, compound concentration 10 uM
[1] = 0 h, replicate number 1, timepoint 0 hours
[2] = 0 h, replicate number 2, timepoint 0 hours
[3] = 6 h, replicate number 2, timepoint 6 hours
[4] = 12 h, replicate number 2, timepoint 12 hours
[5] = 18 h, replicate number 1, timepoint 18 hours
[6] = 24 h, replicate number 1, timepoint 24 hours
[7] = 6 h, replicate number 1, timepoint 6 hours
[8] = 12 h, replicate number 1, timepoint 12 hours
[9] = 24 h, replicate number 2, timepoint 24 hours
[10] = 18 h, replicate number 2, timepoint 18 hours
Further: filed as whole numbers so only -1 and 0 and 1 occur.

Row | SMILES | Growth Rate (HEK-293T; [1]) | Growth Rate (HEK-293T; [2]) | Growth Rate (HEK-293T; [3]) | Growth Rate (HEK-293T; [5]) | Growth Rate (HEK-293T; [6]) | Growth Rate (Fibroblast; [1]) | Growth Rate (Fibroblast; [7]) | Growth Rate (Fibroblast; [8]) | Growth Rate (Fibroblast; [5]) | Growth Rate (Fibroblast; [6]) | Growth Rate (Fibroblast; [9]) | Growth Rate (U2OS; [1]) | Growth Rate (U2OS; [7]) | Growth Rate (U2OS; [3]) | Growth Rate (U2OS; [8]) | Growth Rate (U2OS; [5]) | Growth Rate (U2OS; [6]) | Growth Rate (HEK-293T; [7]) | Growth Rate (HEK-293T; [8]) | Growth Rate (Fibroblast; [3]) | also measured
1 | Cc1cnc(-c2cc(Cl)ccc2F)cc1-n1c(=O)n(CC(N)=O)c2ccccc21 [Al11] | 0 | 1 | 0 | 1 | 1 | 0 | 1 | 1 | 0 | 1 | 0 | 0 | 1 | 0 | 1 | 1 | 1 |  |  |  | Growth Rate (HEK-293T; [4]): 1; Growth Rate (U2OS; [4]): 0
2 | Cc1noc([C@H]2C[C@@H](c3ccc(C(F)(F)F)cc3)CN(C(=O)N3CCS(=O)(=O)C3)C2)n1 [BAY-448] | 1 | 0 | 1 | 0 | 0 | 0 | 1 | 1 | 0 | 0 | 1 | 0 |  | 1 | 1 | 0 | 0 | 0 | 0 | 0 | Growth Rate (HEK-293T; [4]): 1; Growth Rate (U2OS; [10]): 1; Growth Rate (U2OS; [9]): 1
3 | O=C(NCc1ncc(C(F)(F)F)cc1Cl)c1ccc2c(c1)C1(CCS(=O)(=O)CC1)[C@@H](C1CC1)N2S(=O)(=O)c1ccc(F)cc1 [BAY-786] | 0 |  |  | 0 | 0 | 0 | 1 | 1 | 1 | 1 |  | 0 |  | 0 | 1 | 1 | 0 | 1 | 0 |  | Growth Rate (HEK-293T; [4]): 1; Growth Rate (HEK-293T; [10]): 1; Growth Rate (HEK-293T; [9]): 1; Growth Rate (Fibroblast; [2]): 1; Growth Rate (U2OS; [10]): 0
4 | O=C(Nc1ccc(Oc2ccc(F)cc2)cc1)N1CCc2ncccc2[C@H]1c1ccc(F)cc1 [BAY-897] | 0 |  |  | 0 | 0 | 0 | 1 | 1 | 1 | 1 |  | 0 |  |  | 1 | 1 | 1 | 0 | 0 | 0 | 
5 | C[C@H](NC(=O)c1cnc2n1[C@](C)(Cc1ccc(C#N)cc1)C(=O)N2c1cc(Cl)c(F)c(Cl)c1)C(=O)NC1(c2ccccn2)CC1 [BI 1950] | 1 | 0 |  | 0 | 0 | 0 |  |  | 1 | 1 | 0 | 0 |  | 1 | 1 | 1 | 1 | 0 | 0 | 0 | Growth Rate (Fibroblast; [2]): 1; Growth Rate (Fibroblast; [4]): 0; Growth Rate (Fibroblast; [10]): 0
6 | CCOC(=O)c1cc2cc(-c3cc(C(=O)NCc4ccc(C(=O)O)cc4)nn3C)ccc2[nH]1 [BI 4394] | 0 |  |  | 0 | 0 | 1 | 0 | 1 | 1 | 1 |  |  | 1 |  | 1 | 0 | 1 |  | 1 |  | Growth Rate (HEK-293T; [10]): 1; Growth Rate (Fibroblast; [2]): 0; Growth Rate (Fibroblast; [4]): 0; Growth Rate (U2OS; [2]): 0; Growth Rate (U2OS; [10]): 1
7 | CN(C)C(=O)Cn1cc(-c2nc([C@@](C)(c3ccc(-c4cnc(N)nc4)cc3)C3CC3)no2)cn1 [BI 665915] | 0 | 1 |  | 0 | 0 | 1 | 1 | 1 | 0 | 0 | 1 | 0 | 0 | 1 | 1 | 0 | 1 | 0 | 0 |  | Growth Rate (HEK-293T; [4]): 1; Growth Rate (HEK-293T; [10]): 1; Growth Rate (HEK-293T; [9]): 1; Growth Rate (Fibroblast; [10]): 1; Growth Rate (U2OS; [9]): 0
8 | O=S1(=O)c2cccc3cccc(c23)N1CCCN1CCN(c2ccc(F)cc2)CC1 [FANANSERIN] |  | 0 |  | 0 | 0 | 0 | 1 | 0 | 1 | 1 | 0 |  |  |  | 1 | 1 | 1 | 0 | 0 | 0 | Growth Rate (Fibroblast; [10]): 0; Growth Rate (U2OS; [2]): 0
9 | COC(=O)/C=C/c1cccc(N(Cc2ccc(-c3ccc(N(C)C)cc3)cc2)C(=O)C2CCCCC2)c1 [FEXARAMINE] | 0 |  | 0 | 0 | 0 | 0 | 0 | 1 | 1 | 1 | 0 |  |  | 0 | 1 | 1 | 0 | 1 | 0 |  | Growth Rate (Fibroblast; [4]): 0; Growth Rate (Fibroblast; [10]): 0; Growth Rate (U2OS; [2]): 0; Growth Rate (U2OS; [4]): 0; Growth Rate (U2OS; [10]): 0
10 | COc1cc2ncnc(Nc3ccc(F)c(Cl)c3)c2cc1OCCCN1CCOCC1 [GEFITINIB] | 0 |  |  | 0 | 0 | 0 |  | 0 | 0 | 0 |  | 0 | 0 |  | 0 | 0 | 0 | 0 | 0 | 1 | Growth Rate (U2OS; [4]): 1; Growth Rate (U2OS; [10]): 1; Growth Rate (U2OS; [9]): 1
11 | C[C@]1(C(=O)N(CCCC(=O)O)Cc2cccc(Cl)c2)CCN1C(=O)c1csc2ccccc12 [GLPG-0974] | 1 | 0 | 0 | 1 | 1 | 0 | 0 | 0 | 1 | 1 |  | 0 |  | 1 | 1 | 1 | 1 | 1 | 1 |  | Growth Rate (HEK-293T; [4]): 0; Growth Rate (HEK-293T; [10]): 0; Growth Rate (HEK-293T; [9]): 0; Growth Rate (Fibroblast; [2]): 1
12 | CC(C)(O)c1ccccc1CC[C@@H](SCC1(CC(=O)[O-])CC1)c1cccc(/C=C/c2ccc3ccc(Cl)cc3n2)c1.[Na+] [MONTELUKAST SODIUM] | 0 |  | 0 | 1 | 1 | 0 |  | 1 | 1 | 1 |  | 0 |  | 0 | 1 | 1 | 1 | 1 | 0 | 0 | Growth Rate (HEK-293T; [10]): 0; Growth Rate (HEK-293T; [9]): 0
13 | CO[C@@H](C)c1c(Nc2ccc([C@H](N(C)C(=O)C3CCS(=O)(=O)CC3)C(F)(F)F)cc2)cnc2cc(Cl)nn12 [NVS-MALT1] | 0 | 1 | 0 | 0 | 0 |  | 0 | 0 | 0 | 0 | 1 | 0 | 0 | 1 | 1 | 1 | 1 |  | 0 | 1 | Growth Rate (Fibroblast; [2]): 0; Growth Rate (Fibroblast; [4]): 1; Growth Rate (Fibroblast; [10]): 1; Growth Rate (U2OS; [4]): 0
14 | Cc1cc(C(C)(C)C)c(O)c(C)c1CC1=NCCN1.Cl [OXYMETAZOLINE HYDROCHLORIDE] | 0 |  | 0 | 1 | 1 | 0 |  | 1 | 1 | 1 | 0 |  | 0 | 1 | 0 | 0 | 0 | 1 | 1 | 1 | Growth Rate (HEK-293T; [4]): 0; Growth Rate (HEK-293T; [10]): 0; Growth Rate (HEK-293T; [9]): 0; Growth Rate (U2OS; [4]): 1; Growth Rate (U2OS; [9]): 1
15 | C[C@H](c1ccc(F)cc1)N(Cc1cccc(C(=O)O)c1)C(=O)c1cnc2ccccc2c1 [PF-05105679] | 1 | 0 | 1 | 1 | 1 | 0 |  | 1 | 1 | 1 |  |  | 0 | 1 | 0 | 0 | 0 | 0 | 1 | 0 | Growth Rate (HEK-293T; [4]): 0; Growth Rate (HEK-293T; [9]): 0; Growth Rate (U2OS; [2]): 0; Growth Rate (U2OS; [4]): 1; Growth Rate (U2OS; [10]): 1; Growth Rate (U2OS; [9]): 1
16 | Cl.Clc1ccc(CCCOCCCN2CCCCC2)cc1 [PITOLISANT HYDROCHLORIDE] |  | 0 |  | 0 | 0 | 0 |  |  | 1 | 1 |  | 0 |  |  | 1 | 1 | 1 | 0 | 0 |  | 
17 | COc1ccc(S(=O)(=O)N2c3ccc(Cl)cc3[C@](O)(c3ccccc3Cl)[C@@H]2C(=O)N2CCC[C@H]2C(N)=O)cc1OC [RELCOVAPTAN] | 1 | 0 |  | 0 | 0 | 0 | 0 | 0 | 0 | 0 |  |  | 1 | 0 | 0 | 0 | 0 | 0 | 0 |  | Growth Rate (Fibroblast; [2]): 1; Growth Rate (U2OS; [9]): 1
18 | O[C@H]1CC[C@H](Nc2ncc3nc(Nc4c(F)cc(F)cc4F)n([C@H]4CCOC4)c3n2)CC1 [TANZISERTIB] | 0 | 1 |  |  |  |  | 0 | 1 | 1 | 1 |  | 0 | 0 |  | 0 | 0 | 0 |  |  |  | Growth Rate (Fibroblast; [2]): 0; Growth Rate (Fibroblast; [4]): 0; Growth Rate (U2OS; [2]): 1
